Tests used:
Assay type in all cases: biochemical
[1] = target: PIM2 (Homo sapiens, UniProt Q9P1W9); assay: IC50 by mobility shift assay; conditions: for IC50: Table 2, mobility shift assay, read-out: IC50 (μM), Kinase PIM2; for inhibitory activity against PIM2: in words, Table 2
Text: (§1) The compounds produced in Production Examples described above were each assessed for its inhibitory activity against CDK7, PIM2, and PI3K by mobility shift assay. In addition, a combination showing the highest inhibitory activity against each kinase is indicated by italics.

[2] = target: CDK7/CycHMAT1 (Homo sapiens, UniProt P50613); assay: IC50 by mobility shift assay; conditions: Table 2, mobility shift assay; read-out: IC50 (μM), Kinase CDK7/CycH/MAT1
Text: as §1

[3] = target: CDK4/CycD3 (Homo sapiens, UniProt P11802); assay: IC50 by mobility shift assay; conditions: Table 3, CDK4, mobility shift assay; read-out: IC50 (μM), Kinase CDK4/CycD3
Text: Next, the compounds produced in Production Examples described above were each assessed for its inhibitory activity against CDK4 by mobility shift assay. In addition, a combination showing the highest inhibitory activity is indicated by italics.

[4] = target: PIK3α (PIK3CA/PIK3R1) (Homo sapiens, UniProt P42336); assay: IC50 by mobility shift assay; conditions: Table 2, mobility shift assay; read-out: IC50 (μM), Kinase PIK3CA/PIK3RI
Experimental: The compounds obtained in Production Examples described above were each measured for its IC50 value for PIK3α (PIK3CA/PIK3R1) by mobility shift assay. The mobility shift assay is a method involving separating and quantifying a substrate and a phosphorylated substrate on the basis of mobility in a capillary. Each compound was mixed at various concentrations with an assay buffer (20 mM HEPES, 2 mM DTT, 25 μM sodium cholate, 75 mM NaCl, 20 μM cantharidine) together with 21 nM PI3K, 1,000 nM phosphatidyl inositol, 50 μM ATP, and 5 mM MgCl, and the mixture was subjected to a reaction at room temperature for 5 hours, followed by the mobility shift assay. The test was repeated twice. The enzymatic reaction was assessed on the basis of a product ratio (P/(P+S)) calculated from the height of a substrate peptide peak (S) and the height of a phosphorylated peptide peak (P). An inhibition rate was calculated from a signal obtained when each compound was added, with the average signal of a control containing all reaction components being defined as 0% inhibition and the average signal of a background (no enzyme added) being defined as 100% inhibition.
as §1

[5] = target: CDK6 (Homo sapiens, UniProt Q00534); assay: IC50 by mobility shift assay; conditions: Table 4, inhibitory activity against CDK6, mobility shift assay; read-out: IC50 (μM), Kinase
Text: Next, the compounds produced in Production Examples described above were each assessed for its inhibitory activity against CDK6 by mobility shift assay. In addition, a combination showing the highest inhibitory activity is indicated by italics.

[6] = target: PIK3CA/PIK3R1 (Homo sapiens, UniProt P42336); assay: ADP-Glo Kinase Assay; conditions: FIG. 4
Experimental: CD-3 produced in the foregoing was used as a test substance, and was measured for its IC50 value for PIK3CA/PIK3R1 by ADP-Glo™ Kinase Assay. A specific procedure is as described below.
The test substance was dissolved in dimethyl sulfoxide (DMSO), and further diluted with DMSO to prepare a solution having a 100-fold concentration with respect to a Lest concentration. The solution was further diluted 25-fold with an assay buffer to prepare a test substance solution. A positive control substance was similarly treated to prepare a positive control substance solution.
1) 5 μL of a test substance solution having a 4-fold concentration, 5 μL of a substrate solution having a 4-fold concentration, 5 μL of an ATP solution having a 4-fold concentration, and 5 μL of a kinase/metal solution having a 4-fold concentration, which had been prepared with an assay buffer (50 mM MOPS, 1 mM DTT, pH 7.2), were mixed in wells of a 384 well black plate made of polystyrene, and the mixture was subjected to a reaction at room temperature for 1 hour. […]
4) The kinase reaction was assessed in terms of relative light unit (RLU). […]
An IC50 value was determined by approximating a plot of test substance concentration and inhibition rate to a 4-parameter logistic curve by a nonlinear least-squares method.

PIM2, sequence (Q9P1W9 whole entry): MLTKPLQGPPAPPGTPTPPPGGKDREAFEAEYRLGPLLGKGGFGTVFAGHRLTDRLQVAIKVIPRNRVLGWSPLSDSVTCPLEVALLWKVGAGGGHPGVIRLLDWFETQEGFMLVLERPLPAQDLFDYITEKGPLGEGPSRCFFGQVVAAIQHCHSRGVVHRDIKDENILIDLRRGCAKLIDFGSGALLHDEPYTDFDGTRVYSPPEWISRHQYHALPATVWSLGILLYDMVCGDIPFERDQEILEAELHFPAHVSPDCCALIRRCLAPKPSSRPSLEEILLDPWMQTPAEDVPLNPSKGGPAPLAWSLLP
CDK7/CycHMAT1, sequence (P50613 whole entry): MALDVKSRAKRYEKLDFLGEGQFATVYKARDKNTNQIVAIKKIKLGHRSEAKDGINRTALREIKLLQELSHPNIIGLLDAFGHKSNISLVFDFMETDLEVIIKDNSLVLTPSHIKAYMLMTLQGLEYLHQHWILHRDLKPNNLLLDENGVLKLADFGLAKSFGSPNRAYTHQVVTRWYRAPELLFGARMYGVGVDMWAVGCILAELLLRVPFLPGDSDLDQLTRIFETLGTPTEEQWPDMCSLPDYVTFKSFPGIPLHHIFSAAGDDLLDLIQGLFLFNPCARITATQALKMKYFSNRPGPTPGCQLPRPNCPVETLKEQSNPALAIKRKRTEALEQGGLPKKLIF
CDK7/CycHMAT1, sequence (P51946 whole entry partner): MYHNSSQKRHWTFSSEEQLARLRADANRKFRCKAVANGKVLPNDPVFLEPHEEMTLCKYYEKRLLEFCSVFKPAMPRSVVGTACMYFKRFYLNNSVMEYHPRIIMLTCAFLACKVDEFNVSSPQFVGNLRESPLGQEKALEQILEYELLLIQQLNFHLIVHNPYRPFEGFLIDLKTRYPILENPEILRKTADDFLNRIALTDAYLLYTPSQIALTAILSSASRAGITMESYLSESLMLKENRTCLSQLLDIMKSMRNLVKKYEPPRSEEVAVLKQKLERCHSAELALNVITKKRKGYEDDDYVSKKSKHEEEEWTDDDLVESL
CDK7/CycHMAT1, sequence (P51948 whole entry partner): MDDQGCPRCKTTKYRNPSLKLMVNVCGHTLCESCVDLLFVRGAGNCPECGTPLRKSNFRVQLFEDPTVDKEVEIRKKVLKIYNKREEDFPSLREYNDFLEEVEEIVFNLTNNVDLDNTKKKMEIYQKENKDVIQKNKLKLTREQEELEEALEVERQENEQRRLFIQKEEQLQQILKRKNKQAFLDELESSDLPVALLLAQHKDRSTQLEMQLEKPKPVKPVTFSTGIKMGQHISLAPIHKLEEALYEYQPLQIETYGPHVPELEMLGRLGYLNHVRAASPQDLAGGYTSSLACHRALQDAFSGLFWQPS
PIK3α (PIK3CA/PIK3R1), sequence (P42336 whole entry): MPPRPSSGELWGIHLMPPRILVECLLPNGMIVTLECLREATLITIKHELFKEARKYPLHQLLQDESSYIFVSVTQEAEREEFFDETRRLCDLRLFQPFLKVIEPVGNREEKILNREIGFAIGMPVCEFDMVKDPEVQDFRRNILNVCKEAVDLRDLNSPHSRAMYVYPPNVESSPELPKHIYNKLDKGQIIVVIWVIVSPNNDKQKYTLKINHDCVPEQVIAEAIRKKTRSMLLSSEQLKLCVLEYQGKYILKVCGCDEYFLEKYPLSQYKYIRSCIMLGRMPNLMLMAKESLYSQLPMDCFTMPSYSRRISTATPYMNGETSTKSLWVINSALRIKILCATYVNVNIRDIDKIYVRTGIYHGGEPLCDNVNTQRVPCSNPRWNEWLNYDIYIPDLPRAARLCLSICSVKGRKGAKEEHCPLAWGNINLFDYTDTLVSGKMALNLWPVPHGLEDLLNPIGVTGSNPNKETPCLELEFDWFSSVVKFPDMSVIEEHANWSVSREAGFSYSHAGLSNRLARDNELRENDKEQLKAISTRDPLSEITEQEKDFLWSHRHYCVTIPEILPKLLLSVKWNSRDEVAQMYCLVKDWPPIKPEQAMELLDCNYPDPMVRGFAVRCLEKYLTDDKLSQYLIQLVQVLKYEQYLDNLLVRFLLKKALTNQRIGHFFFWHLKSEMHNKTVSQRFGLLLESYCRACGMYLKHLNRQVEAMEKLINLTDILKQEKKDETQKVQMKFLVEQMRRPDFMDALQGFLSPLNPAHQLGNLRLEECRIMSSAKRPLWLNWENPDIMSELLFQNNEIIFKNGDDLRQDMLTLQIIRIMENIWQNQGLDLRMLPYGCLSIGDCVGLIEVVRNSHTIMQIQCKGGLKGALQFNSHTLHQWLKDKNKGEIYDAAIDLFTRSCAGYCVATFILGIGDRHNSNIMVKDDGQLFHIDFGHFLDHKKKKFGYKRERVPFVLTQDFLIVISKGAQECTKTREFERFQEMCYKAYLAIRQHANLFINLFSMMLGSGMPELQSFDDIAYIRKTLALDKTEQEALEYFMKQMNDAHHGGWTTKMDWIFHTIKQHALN
PIK3α (PIK3CA/PIK3R1), sequence (P27986 whole entry partner): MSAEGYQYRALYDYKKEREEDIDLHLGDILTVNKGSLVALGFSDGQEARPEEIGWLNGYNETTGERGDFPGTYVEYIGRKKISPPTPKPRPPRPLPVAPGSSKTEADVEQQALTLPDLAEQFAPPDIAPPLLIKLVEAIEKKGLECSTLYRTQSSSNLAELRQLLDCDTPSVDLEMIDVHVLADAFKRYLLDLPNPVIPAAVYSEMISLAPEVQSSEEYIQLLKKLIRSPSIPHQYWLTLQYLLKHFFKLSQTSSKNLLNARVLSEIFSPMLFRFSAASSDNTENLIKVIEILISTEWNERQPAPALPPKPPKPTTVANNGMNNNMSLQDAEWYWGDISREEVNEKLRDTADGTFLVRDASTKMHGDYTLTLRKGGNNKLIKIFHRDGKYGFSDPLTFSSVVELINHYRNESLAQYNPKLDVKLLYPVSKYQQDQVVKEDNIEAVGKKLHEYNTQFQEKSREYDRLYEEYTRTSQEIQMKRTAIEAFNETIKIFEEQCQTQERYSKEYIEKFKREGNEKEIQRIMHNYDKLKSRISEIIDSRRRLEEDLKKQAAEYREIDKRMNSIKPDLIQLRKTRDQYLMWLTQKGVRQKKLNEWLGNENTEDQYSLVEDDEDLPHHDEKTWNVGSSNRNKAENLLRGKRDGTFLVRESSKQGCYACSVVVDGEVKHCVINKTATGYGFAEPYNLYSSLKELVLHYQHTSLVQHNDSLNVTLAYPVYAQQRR
CDK4/CycD3, sequence (P11802 whole entry): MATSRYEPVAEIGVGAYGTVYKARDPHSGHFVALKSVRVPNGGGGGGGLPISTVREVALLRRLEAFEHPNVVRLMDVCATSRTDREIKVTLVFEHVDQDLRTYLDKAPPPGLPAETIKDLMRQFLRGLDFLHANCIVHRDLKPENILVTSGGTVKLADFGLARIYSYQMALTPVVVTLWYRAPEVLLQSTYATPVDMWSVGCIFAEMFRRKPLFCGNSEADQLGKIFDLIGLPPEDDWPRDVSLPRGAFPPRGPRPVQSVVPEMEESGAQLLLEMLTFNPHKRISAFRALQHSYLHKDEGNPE
CDK4/CycD3, sequence (P30281 whole entry partner): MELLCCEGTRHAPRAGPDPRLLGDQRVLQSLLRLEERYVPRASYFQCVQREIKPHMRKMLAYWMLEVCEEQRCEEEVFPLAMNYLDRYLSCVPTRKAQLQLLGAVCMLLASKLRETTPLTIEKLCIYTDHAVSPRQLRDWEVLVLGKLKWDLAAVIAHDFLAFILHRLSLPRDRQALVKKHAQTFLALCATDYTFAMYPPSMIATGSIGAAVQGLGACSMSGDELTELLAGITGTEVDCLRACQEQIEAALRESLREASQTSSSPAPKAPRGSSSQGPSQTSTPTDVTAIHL
CDK6, sequence (Q00534 whole entry): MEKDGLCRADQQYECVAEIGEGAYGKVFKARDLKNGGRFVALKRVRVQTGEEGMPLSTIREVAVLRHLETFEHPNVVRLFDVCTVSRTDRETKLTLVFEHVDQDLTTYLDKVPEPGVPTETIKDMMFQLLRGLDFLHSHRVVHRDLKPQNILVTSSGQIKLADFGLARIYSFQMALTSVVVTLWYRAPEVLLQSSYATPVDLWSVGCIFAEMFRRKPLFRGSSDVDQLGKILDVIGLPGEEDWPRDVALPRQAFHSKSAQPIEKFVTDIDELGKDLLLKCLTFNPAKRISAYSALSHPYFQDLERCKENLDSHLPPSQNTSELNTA
PIK3CA/PIK3R1, sequence (P42336 whole entry): as the sequence (P42336 whole entry) above
PIK3CA/PIK3R1, sequence (P27986 whole entry partner): as the sequence (P27986 whole entry partner) above

| Structure (SMILES) | IC50 [1] | inhibitory activity against PIM2 [1] | IC50 [2] | IC50 [3] | IC50 [4] | IC50 [5] | IC50 [6] |
| --- | --- | --- | --- | --- | --- | --- | --- |
| C[C@H]1CC[C@H]2C(C)(C)CCC[C@]2(C)c2c1oc1c(C=O)c(O)c(O)cc21 [LG-2] | 2.81 µM | potent inhibitory actions | 9.08 µM | 125 µM | 1.72 µM |  |  |
| C[C@H]1CC[C@H]2C(C)(C)CCC[C@]2(C)c2c1oc1c(C=O)c3c(cc21)OCO3 [LG-4] | 13.8 µM |  | 191 µM |  | 4.43 µM |  |  |
| C[C@H]1CC[C@H]2C(C)(C)CCCC2(C)[C@]12C=C1C=C(O)C(=O)C(C=O)=C1O2 (stereo partly drawn) [CD-3, 8-epi-corallidictyal B] |  |  |  |  |  |  | 8.2 µM |
| C[C@@H]1CC[C@H]2C(C)(C)CCC[C@]2(C)c2c1oc1c(C=O)c3c(cc21)OCO3 [LG-3] | 18 µM |  | 16.3 µM | 47.8 µM | 4.26 µM | 64.1 µM |  |

The remaining lines, values ahead:

| IC50 [1] | inhibitory activity against PIM2 [1] | IC50 [2] | IC50 [3] | IC50 [4] | IC50 [5] | IC50 [6] | Structure (SMILES) |
| --- | --- | --- | --- | --- | --- | --- | --- |
| 6.99 µM |  | 13.7 µM | 32.9 µM | 2.62 µM | 69.1 µM |  | C[C@@H]1CC[C@H]2C(C)(C)CCC[C@]2(C)/C1=C/c1cc(O)c(O)c(C=O)c1O [SD-1, siphonodictyal B] |
| 2.79 µM | potent inhibitory actions | 4.24 µM | 22.4 µM | 3.26 µM | 25.6 µM |  | C[C@H]1CC[C@H]2C(C)(C)CCC[C@]2(C)/C1=C/c1cc(O)c(O)c(C=O)c1O [SD-2, 8-epi-siphonodictyal B] |

From patent publication US11691980B2, “Liphagal analog and multi-targeted kinase inhibitor containing liphagal or analog thereof” (TOHOKU UNIVERSITY, priority 2017, dated 2023)
